Laboratory results: ChEMBL document CHEMBL1201862, “PubChem BioAssay data set” (2004)
Values joined by “and” are separate entries in the source; they are usually repeats but may differ in a detail not shown here. Equal values may be shown once. Active and inactive are the calls of the source.

Columns and labels:
[1] = molecular target: Tyrosine-protein kinase receptor UFO (Homo sapiens, UniProt P30530); type: functional
[2] = molecular target: Interleukin-1 receptor-associated kinase 4 (Homo sapiens, UniProt Q9NWZ3); type: functional
Aurora kinase A = Aurora kinase A (Homo sapiens, UniProt O14965); type: functional;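 further: value from the Navigating the Kinome kinase panel profiling, panel entry STK6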
[3] = molecular target: Serine/threonine-protein kinase Nek2 (Homo sapiens, UniProt P51955); type: functional
[4] = molecular target: Casein kinase II subunit alpha (Homo sapiens, UniProt P68400); type: functional
[5] = molecular target: Glycogen synthase kinase-3 alpha (Homo sapiens, UniProt P49840); type: functional;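 further: GSK3A result taken from a broad kinome-wide kinase panel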
[6] = molecular target: Megakaryocyte-associated tyrosine-protein kinase (Homo sapiens, UniProt P42679); type: functional;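 further: affinity measured as one member of a kinase panel (Navigating the Kinome) against MATK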
[7] = molecular target: Proto-oncogene tyrosine-protein kinase Src (Homo sapiens, UniProt P12931); type: functional;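 further: SRC entry within a kinome-wide kinase profiling panel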
[8] = molecular target: Serine/threonine-protein kinase Chk2 (Homo sapiens, UniProt O96017); type: functional;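 further: CHEK2 entry within a kinome-wide screening panel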
[9] = molecular target: Mitogen-activated protein kinase kinase kinase 20 (Homo sapiens, UniProt Q9NYL2); type: functional
[10] = molecular target: cAMP-dependent protein kinase catalytic subunit PRKX (Homo sapiens, UniProt P51817); type: functional
[11] = molecular target: MAP/microtubule affinity-regulating kinase 3 (Homo sapiens, UniProt P27448); type: functional;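 further: MARK3 affinity measured as one member of a kinome panel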
[12] = molecular target: Phosphorylase b kinase gamma catalytic chain, liver/testis isoform (Homo sapiens, UniProt P15735); type: functional;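 further: PHKG2 measured as one member of a kinome-wide kinase panel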
[13] = molecular target: Dual specificity tyrosine-phosphorylation-regulated kinase 3 (Homo sapiens, UniProt O43781); type: functional;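 further: measured as one member of a broad kinase panel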
[14] = molecular target: Receptor-type tyrosine-protein kinase FLT3 (Homo sapiens, UniProt P36888); type: functional;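 further: FLT3 was tested as one member of a kinome-wide kinase panel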
Ephrin type-A receptor 2 = Ephrin type-A receptor 2 (Homo sapiens, UniProt P29317); type: functional;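 further: EPHA2 tested as one member of a kinome-wide kinase panel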
[15] = molecular target: Protein-tyrosine kinase 2-beta (Homo sapiens, UniProt Q14289); type: functional
[16] = molecular target: Serine/threonine-protein kinase PAK 1 (Homo sapiens, UniProt Q13153); type: functional
[17] = molecular target: Protein kinase C iota type (Homo sapiens, UniProt P41743); type: functional;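 further: measured within a kinome-wide kinase panel, PRKCI as panel member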
[18] = molecular target: Serine/threonine-protein kinase PAK 4 (Homo sapiens, UniProt O96013); type: functional;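 further: value obtained within a kinome profiling panel in which PAK4 was one of the panel members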
[19] = molecular target: Casein kinase I isoform gamma-1 (Homo sapiens, UniProt Q9HCP0); type: functional;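 further: measured as the CSNK1G1 member of a kinome profiling panel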
[20] = molecular target: Death-associated protein kinase 3 (Homo sapiens, UniProt O43293); type: functional;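 further: measured as one member of a kinome-wide profiling panel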
[21] = molecular target: Cell division cycle 7-related protein kinase (Homo sapiens, UniProt O00311); type: functional;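 further: value obtained from a kinome-wide kinase panel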
[22] = molecular target: Phosphoethanolamine/phosphocholine phosphatase (Homo sapiens, UniProt Q8TCT1); assay: SAR assay for compounds that inhibit PHOSPHO1. [Related pubchem assays (depositor defined):AID1545, AID1565, AID1574]
[23] = Luminescence Cell-Based Dose Response HTS to Identify Activators of Luciferase Translation or Activity in H4 […] Cells. [Related pubchem assays: 1829 (Project Summary), 1814 (Primary HTS)]; type: functional
[24] = molecular target: T1, Mannose-6-phosphate isomerase (Homo sapiens, UniProt P34949); assay: MPI enzyme activity inhibition – biochemical, fluorescence intensity, coupled assay, primary screen (AID 1209)
T1 sequence (P34949 whole entry): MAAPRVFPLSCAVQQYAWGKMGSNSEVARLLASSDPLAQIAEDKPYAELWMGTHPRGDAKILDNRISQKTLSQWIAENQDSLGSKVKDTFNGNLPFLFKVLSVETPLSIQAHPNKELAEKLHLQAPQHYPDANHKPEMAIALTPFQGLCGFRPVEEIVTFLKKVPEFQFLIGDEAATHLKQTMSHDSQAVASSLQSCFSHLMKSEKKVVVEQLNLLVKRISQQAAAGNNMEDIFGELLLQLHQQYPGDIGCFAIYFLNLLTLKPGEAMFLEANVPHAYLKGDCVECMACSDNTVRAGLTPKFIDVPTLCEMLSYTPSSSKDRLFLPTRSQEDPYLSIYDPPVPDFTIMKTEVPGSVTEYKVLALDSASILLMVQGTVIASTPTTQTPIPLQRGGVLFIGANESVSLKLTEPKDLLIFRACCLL

[25] = molecular target: T1, Mannose-6-phosphate isomerase; assay: phosphomannose isomerase inhibition – biochemical, fluorescence intensity, confirmation (AID 1535)
Paired box protein Pax-8 = Paired box protein Pax-8 (Homo sapiens, UniProt Q06710); assay: PAX8 transcriptional activity inhibition in RMG-I – RMG-I cells, luciferase, cherry-pick, dose response (AID 687027); type: functional, cell-based;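 further: luciferase reporter driven by Pax8 target thyroperoxidase promoter measured by SteadyGlo luminescence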
[26] = molecular target: RNA-editing ligase 1, mitochondrial (Trypanosoma brucei brucei, UniProt P86926); assay: inhibition of trypanosome RNA editing ligase – biochemical, fluorescence, Trypanosoma brucei, dose response (AID 1117295); type: functional
Cytochrome P450 2C19 = Cytochrome P450 2C19 (Homo sapiens, UniProt P33261); assay: Cytochrome panel assay with activity outcomes. Panel member name: p450-cyp2c19 Compounds with AC50 equal or less than 10 uM are considered active; type: functional; conditions: read-out: AC50
[27] = molecular target: Dual specificity tyrosine-phosphorylation-regulated kinase 1A (Rattus norvegicus, UniProt Q63470); type: biochemical, Homo sapiens
[28] = fluconazole-exposed Candida albicans growth modulators – fluorescence, retest, confirmation (AID 2467); type: functional, cell-based

Chain of Phosphoethanolamine/phosphocholine phosphatase (Q8TCT1 whole entry): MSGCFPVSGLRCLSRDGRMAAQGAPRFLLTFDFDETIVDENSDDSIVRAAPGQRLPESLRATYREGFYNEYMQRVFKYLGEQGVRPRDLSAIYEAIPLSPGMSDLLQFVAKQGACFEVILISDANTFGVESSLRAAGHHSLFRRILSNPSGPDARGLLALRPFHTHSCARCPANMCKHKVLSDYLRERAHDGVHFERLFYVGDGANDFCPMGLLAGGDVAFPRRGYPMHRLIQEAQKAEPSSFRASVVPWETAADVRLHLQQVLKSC
Chain of Interleukin-1 receptor-associated kinase 4 (Q9NWZ3 whole entry): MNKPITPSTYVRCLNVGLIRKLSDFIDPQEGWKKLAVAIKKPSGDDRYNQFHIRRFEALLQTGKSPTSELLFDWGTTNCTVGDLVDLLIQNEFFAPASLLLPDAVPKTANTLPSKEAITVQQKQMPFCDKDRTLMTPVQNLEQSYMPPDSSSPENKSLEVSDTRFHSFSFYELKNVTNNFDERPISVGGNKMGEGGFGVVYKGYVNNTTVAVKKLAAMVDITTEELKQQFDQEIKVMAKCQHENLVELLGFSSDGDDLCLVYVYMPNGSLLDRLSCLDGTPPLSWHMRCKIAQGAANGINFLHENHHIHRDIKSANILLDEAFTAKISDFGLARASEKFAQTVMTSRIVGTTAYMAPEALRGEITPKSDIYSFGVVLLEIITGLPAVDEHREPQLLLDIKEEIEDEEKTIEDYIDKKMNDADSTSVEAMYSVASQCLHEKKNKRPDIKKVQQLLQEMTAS
Chain of RNA-editing ligase 1, mitochondrial (P86926 whole entry): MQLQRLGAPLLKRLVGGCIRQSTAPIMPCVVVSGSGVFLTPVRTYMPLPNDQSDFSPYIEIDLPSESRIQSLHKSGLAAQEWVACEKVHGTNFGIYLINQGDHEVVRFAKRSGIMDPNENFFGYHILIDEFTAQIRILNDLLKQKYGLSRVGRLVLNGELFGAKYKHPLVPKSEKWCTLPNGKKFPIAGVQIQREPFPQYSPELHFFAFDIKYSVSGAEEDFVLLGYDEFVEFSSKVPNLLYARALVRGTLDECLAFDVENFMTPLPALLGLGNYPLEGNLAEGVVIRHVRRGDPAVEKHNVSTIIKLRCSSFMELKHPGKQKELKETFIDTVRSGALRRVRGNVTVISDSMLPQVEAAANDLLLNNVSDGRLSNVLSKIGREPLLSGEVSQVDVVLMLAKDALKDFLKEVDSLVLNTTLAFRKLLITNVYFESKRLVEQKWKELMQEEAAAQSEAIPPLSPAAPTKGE
Chain of Protein-tyrosine kinase 2-beta (Q14289 whole entry): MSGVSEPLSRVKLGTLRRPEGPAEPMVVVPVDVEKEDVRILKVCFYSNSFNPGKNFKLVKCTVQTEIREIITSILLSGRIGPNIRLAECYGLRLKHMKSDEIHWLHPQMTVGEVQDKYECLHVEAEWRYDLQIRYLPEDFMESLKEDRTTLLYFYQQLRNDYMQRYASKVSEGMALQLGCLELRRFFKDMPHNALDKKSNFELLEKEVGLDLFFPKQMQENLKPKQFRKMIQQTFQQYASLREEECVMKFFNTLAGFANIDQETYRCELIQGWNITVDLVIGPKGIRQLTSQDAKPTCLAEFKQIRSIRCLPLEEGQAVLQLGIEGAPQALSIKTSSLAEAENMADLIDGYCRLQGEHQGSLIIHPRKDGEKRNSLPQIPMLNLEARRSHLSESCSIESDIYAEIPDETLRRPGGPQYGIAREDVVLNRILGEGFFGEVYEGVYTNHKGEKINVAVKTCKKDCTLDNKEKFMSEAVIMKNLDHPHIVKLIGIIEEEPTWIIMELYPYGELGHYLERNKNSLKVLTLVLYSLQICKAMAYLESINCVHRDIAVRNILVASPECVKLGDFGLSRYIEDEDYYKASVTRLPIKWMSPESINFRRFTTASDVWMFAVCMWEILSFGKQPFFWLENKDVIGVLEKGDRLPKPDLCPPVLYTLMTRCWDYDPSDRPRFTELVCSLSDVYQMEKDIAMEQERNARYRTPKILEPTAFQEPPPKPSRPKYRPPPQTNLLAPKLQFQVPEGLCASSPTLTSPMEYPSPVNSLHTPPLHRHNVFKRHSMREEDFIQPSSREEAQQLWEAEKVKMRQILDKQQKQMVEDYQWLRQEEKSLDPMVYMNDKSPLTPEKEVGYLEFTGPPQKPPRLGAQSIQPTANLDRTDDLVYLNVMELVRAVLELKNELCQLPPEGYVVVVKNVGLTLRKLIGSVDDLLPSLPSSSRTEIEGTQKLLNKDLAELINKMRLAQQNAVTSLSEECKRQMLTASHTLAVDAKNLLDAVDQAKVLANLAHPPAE
Chain of Tyrosine-protein kinase receptor UFO (P30530 whole entry): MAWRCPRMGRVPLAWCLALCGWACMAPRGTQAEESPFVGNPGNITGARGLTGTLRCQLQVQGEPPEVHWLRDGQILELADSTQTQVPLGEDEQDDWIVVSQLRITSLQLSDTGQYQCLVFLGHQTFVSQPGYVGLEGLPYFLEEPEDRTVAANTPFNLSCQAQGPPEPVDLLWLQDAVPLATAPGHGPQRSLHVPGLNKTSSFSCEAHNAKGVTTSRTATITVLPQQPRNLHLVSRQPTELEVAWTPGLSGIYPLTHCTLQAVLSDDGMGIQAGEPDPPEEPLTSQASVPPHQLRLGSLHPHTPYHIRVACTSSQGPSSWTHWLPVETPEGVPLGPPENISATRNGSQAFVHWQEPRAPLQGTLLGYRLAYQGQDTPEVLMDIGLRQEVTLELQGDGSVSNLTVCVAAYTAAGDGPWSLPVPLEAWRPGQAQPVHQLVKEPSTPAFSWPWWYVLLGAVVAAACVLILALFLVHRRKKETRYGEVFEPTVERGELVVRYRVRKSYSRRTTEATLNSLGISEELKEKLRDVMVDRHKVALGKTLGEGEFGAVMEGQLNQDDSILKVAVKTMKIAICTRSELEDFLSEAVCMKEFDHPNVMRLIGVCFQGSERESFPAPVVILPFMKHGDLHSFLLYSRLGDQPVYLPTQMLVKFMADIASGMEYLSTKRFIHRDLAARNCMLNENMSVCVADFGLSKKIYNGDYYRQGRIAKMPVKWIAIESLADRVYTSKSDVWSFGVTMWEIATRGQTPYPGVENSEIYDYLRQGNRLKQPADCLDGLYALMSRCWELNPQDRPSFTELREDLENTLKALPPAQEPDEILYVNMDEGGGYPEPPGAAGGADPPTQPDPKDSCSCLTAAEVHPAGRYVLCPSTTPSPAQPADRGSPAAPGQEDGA
Chain of Mitogen-activated protein kinase kinase kinase 20 (Q9NYL2 whole entry): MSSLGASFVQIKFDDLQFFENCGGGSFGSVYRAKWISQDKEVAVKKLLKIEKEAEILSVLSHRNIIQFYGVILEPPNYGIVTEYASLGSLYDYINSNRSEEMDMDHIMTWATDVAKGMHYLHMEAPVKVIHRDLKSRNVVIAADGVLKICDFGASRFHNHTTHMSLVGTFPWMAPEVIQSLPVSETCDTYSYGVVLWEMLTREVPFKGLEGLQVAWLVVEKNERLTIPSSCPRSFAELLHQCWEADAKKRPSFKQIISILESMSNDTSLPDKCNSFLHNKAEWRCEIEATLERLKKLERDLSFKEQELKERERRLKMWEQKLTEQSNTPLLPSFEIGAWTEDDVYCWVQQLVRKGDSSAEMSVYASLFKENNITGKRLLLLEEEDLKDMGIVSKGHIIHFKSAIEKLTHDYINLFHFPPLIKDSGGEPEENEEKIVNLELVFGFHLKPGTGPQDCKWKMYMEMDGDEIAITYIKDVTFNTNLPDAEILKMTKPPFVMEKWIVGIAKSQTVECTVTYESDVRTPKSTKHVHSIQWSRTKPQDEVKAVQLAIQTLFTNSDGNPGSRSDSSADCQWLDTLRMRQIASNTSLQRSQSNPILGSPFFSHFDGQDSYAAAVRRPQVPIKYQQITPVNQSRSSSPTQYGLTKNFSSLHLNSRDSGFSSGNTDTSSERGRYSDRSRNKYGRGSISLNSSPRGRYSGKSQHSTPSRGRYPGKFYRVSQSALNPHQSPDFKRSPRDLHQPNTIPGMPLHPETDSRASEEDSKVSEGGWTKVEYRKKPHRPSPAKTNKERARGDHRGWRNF
Chain of Casein kinase II subunit alpha (P68400 whole entry): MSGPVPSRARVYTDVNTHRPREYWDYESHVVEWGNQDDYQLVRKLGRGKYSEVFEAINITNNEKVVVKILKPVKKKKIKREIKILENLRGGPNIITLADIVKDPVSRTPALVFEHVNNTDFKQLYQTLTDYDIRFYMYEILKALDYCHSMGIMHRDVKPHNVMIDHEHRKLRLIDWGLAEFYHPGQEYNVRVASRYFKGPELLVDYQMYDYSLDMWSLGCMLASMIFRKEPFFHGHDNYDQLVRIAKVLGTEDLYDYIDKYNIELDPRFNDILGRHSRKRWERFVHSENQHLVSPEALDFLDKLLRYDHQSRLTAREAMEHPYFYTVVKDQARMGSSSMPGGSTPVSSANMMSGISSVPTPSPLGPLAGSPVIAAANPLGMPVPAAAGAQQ
Chain of Casein kinase I isoform gamma-1 (Q9HCP0 whole entry, canonical isoform): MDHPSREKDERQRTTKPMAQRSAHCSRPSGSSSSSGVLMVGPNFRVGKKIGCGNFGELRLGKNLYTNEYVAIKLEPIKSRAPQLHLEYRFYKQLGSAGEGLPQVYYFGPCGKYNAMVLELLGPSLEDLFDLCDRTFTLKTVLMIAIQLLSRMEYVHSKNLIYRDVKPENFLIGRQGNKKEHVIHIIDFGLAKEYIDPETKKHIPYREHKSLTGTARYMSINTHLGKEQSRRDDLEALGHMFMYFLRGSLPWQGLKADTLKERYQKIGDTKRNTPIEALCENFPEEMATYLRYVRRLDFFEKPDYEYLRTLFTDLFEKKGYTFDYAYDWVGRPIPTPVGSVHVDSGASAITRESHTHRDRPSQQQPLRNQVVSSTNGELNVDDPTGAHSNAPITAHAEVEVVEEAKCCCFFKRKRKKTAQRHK

For `Cc1cccc(NC(=O)Nc2ccc3c(c2)CCc2sc4ncnc(N)c4c2-3)c1`, which Ki [1] is on record?
Its Ki is 15.8 nM (active).

What about the Ki [2] of the same molecule?
The Ki was > 10000 nM (inactive).

And the Ki (Aurora kinase A)?
Its Ki is 79.4 nM (active).

And the Ki [3]?
The Ki was > 10000 nM (inactive).

And the Ki [4]?
The Ki was > 6310 nM (inactive).

What about the Ki [5] of the same molecule?
Its Ki is > 7940 nM (inactive).

And the Ki [6]?
The Ki was > 2000 nM (inactive).

And the Ki [7]?
The Ki was > 2000 nM (inactive).

What about the Ki [8] of the same molecule?
Its Ki is 1260 nM (active).

And the Ki [9]?
Its Ki is 3160 nM (active).

What about the Ki [10] of the same molecule?
Its Ki is > 1580 nM (inactive).

What about the Ki [11] of the same molecule?
Its Ki is 3160 nM (active).

And the Ki [12]?
Its Ki is > 5010 nM (inactive).

And the Ki [13]?
The Ki was > 6310 nM (inactive).

What about the Ki [14] of the same molecule?
The Ki was 2 nM (active).

What about the Ki (Ephrin type-A receptor 2) of the same molecule?
The Ki was 31.6 nM (active).

And the Ki [15]?
The Ki was > 1580 nM (inactive).

What about the Ki [16] of the same molecule?
The Ki was > 10000 nM (inactive).

What about the Ki [17] of the same molecule?
Its Ki is > 5010 nM (inactive).

What about the Ki [18] of the same molecule?
The Ki was > 5010 nM (inactive).

What about the Ki [19] of the same molecule?
The Ki was 2510 nM (active).

What about the Ki [20] of the same molecule?
The Ki was > 1260 nM (inactive).

What about the Ki [21] of the same molecule?
Its Ki is > 1260 nM (inactive).

With `Cc1ccc(-n2sc3ccccc3c2=O)cc1` as the molecule, how does the IC50 [22] read?
Its IC50 is 2.28 µM (inactive) and 1.46 µM (inactive).

And the EC50 [23]?
Its EC50 is 23300 nM (active).

And the IC50 [24]?
Its IC50 is 6780 nM (active).

And the IC50 [25]?
The IC50 was 7.04 µM (active) and 4.06 µM (active).

For `CCC(=O)NC(c1ccc(C)cc1)c1ccc2cccnc2c1O` (configuration not stated), which AC50 (Paired box protein Pax-8) is on record?
The AC50 was 1810 nM (active).

Which IC50 [26] does the source give for `N/C(=N\N=C/c1ccc(-c2ccc(O)c(C(=O)O)c2)o1)N[N+](=O)[O-]` here?
The IC50 was 21200 nM (inactive).

What about the AC50 (Cytochrome P450 2C19) of the same molecule?
Its AC50 is 39800 nM (inconclusive).

And the AC50 [27]?
Its AC50 is 1130 nM (active).

Which EC50 [28] does the source give for `CCCC(=O)NC(c1ccc(Cl)cc1)c1ccc2cccnc2c1O` (configuration not stated) here?
Its EC50 is 365 nM (active).
